24 compounds from the SangsterLogP compilation can be followed below.

The series in a line: method code SF-HPLC, from PMID: 2608704. The conditions noted are these: pH 1.0.

A word on the logD: it is the decadic logarithm of the distribution of all forms, ionised or not, between an organic phase and buffer at a given pH. High values mean a more lipophilic compound, low ones a more hydrophilic compound. The compound `O=C(O)CCSC1=NS(=O)(=O)c2cc(Br)cc(Br)c2N1` displayed a logD of 2.04.
In turn, `O=C(O)CSC1=NS(=O)(=O)c2cc(Cl)c(Cl)cc2N1` came in with a logD of 1.1.
The compound `O=C(O)CCSC1=NS(=O)(=O)c2cc(Cl)ccc2N1` came in with a logD of 1.43.
For `O=C(O)CCSC1=NS(=O)(=O)c2cc(Cl)c(Cl)cc2N1`, the logD came to 1.81.
Take `O=C(O)CCC1=NS(=O)(=O)c2cc(Cl)cc(Cl)c2N1`: the logD amounted to 1.04.
For the compound `O=C(O)CSC1=NS(=O)(=O)c2cc(Br)ccc2N1`, the logD worked out at 0.92.
As to `O=C(O)CSC1=NS(=O)(=O)c2cc(Cl)ccc2N1`, the pH-dependent lipophilicity (logD) came to 0.72.
As for `O=C(O)CCSC1=NS(=O)(=O)c2cc(Br)ccc2N1`, the figure is 1.77; as for `Cc1ccc2c(c1)NC(SCC(=O)O)=NS2(=O)=O`, 0.7.
In the case of `O=C(O)CCC1=NS(=O)(=O)c2cc(Cl)c(Cl)cc2N1`, the logD amounted to 1.5.
The same measure for `O=C(O)CSC1=NS(=O)(=O)c2cc(Cl)cc(Cl)c2N1`: 1.09.
On to `O=C(O)CCSC1=NS(=O)(=O)c2ccc(C(F)(F)F)cc2N1`, for which the logD came to 1.96.
As for `O=C(O)CCCC1=NS(=O)(=O)c2cc(Cl)cc(Cl)c2N1`, the figure is 1.22; as for `O=C(O)CSC1=NS(=O)(=O)c2ccccc2N1`, 0.18; as for `COc1ccc2c(c1)NC(SCCC(=O)O)=NS2(=O)=O`, 0.96.
As for `O=C(O)CSC1=NS(=O)(=O)c2cc(Br)cc(Br)c2N1`, the figure is 1.16.
As for `O=C(O)CCSC1=NS(=O)(=O)c2ccc(Cl)cc2N1`, the figure is 1.6; as for `Cc1ccc2c(c1)NC(SCCC(=O)O)=NS2(=O)=O`, 1.16.
As for `O=C(O)CCCC1=NS(=O)(=O)c2cc(Br)cc(Br)c2N1`, the logD came out at 1.51.
For `COc1ccc2c(c1)NC(SCC(=O)O)=NS2(=O)=O`, the logD came out at 0.37.
The same measure for `O=C(O)CCC1=NS(=O)(=O)c2cc(Br)cc(Br)c2N1`: 1.35; for `O=C(O)CSC1=NS(=O)(=O)c2ccc(C(F)(F)F)cc2N1`: 1.62; for `O=C(O)CSC1=NS(=O)(=O)c2ccc(Cl)cc2N1`: 0.82.
As for `O=C(O)CCSC1=NS(=O)(=O)c2ccccc2N1`, the logD came out at 0.66.
